Laboratory results as given in ChEMBL document CHEMBL1127657, “Haloperidol-based irreversible inhibitors of the HIV-1 and HIV-2 proteases” (J Med Chem, 1994).

Experiments:
[1] = molecular target: Human immunodeficiency virus type 1 protease (Human immunodeficiency virus 1, UniProt Q72874); assay: In vitro inhibition of recombinant HIV-1 protease expressed in Escherichia coli strain D1210
[2] = molecular target: T1, Human rhinovirus A protease (Human rhinovirus sp.) (UniProt Q4U254); settings: Human immunodeficiency virus 2
T1 sequence (whole entry): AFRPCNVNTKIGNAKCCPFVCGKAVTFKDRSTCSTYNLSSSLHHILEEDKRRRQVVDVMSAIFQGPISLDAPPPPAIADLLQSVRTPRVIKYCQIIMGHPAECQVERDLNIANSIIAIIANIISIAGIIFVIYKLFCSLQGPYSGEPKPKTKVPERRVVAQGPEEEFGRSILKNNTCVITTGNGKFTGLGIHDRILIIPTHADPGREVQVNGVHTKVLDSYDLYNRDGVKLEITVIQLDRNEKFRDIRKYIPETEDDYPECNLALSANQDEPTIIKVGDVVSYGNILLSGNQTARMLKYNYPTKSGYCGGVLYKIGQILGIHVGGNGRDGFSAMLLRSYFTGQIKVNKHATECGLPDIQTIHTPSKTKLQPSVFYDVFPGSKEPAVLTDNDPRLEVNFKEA

[3] = molecular target: Human immunodeficiency virus type 1 protease (Human immunodeficiency virus 1) (UniProt Q72874)
Description: The irreversibility of the inactivation reaction of HIV-1 PR was assessed

| SMILES | IC50 [1] | K inact [2] | K inact [3] |
| --- | --- | --- | --- |
| OC1(c2ccc(Cl)cc2)CCN(CC#CC2(c3ccccc3)CO2)CC1 (centres undefined) | 150 µM |  |  |
| OC1(C#CC2(c3ccccc3)CO2)CCN(Cc2ccccc2)CC1 (centres undefined) | 725 µM |  |  |
| O=C(/C=C/CN1CCC(O)(c2ccc(Cl)cc2)CC1)c1ccc(F)cc1 | 80 µM |  |  |
| O=C(C#CCN1CCC(O)(c2ccc(Cl)cc2)CC1)c1ccc(-c2ccccc2)cc1 | 100 µM |  |  |
| O=C(C#CCN1CCC(O)(c2ccc(Cl)cc2)CC1)c1ccccc1 | 20 µM |  |  |
| O=C(/C=C/C[N+]1([O-])CCC(O)(c2ccc(Cl)cc2)CC1)c1ccc(F)cc1 (centres undefined) | 30 µM | 4.33 min⁻¹ | 86 min⁻¹ |
| O=C(C#CCN1CCC(O)(c2ccc(Cl)cc2)CC1)c1cccc(-c2ccccc2)c1 | 63 µM |  |  |
